{"source": "paper PMC8286840", "about": "“Identifying SARS-CoV-2 antiviral compounds by screening for small molecule inhibitors of Nsp3 papain-like protease” (Biochemical Journal, 2021)", "key": {"[1]": {"target": "T1, SARS-CoV-2 PLpro (nsp3 1564–1878) (Severe acute respiratory syndrome coronavirus 2, UniProt P0DTD1)", "experiment": "biochemical", "set-up": "FRET-quenched peptide (Pro3) cleavage by PLpro, 10 min pre-incubation, slope over 20 min, normalised to no-compound control", "conditions": "low concentration screen, read-out: % of control remaining", "procedure": "The plates were organized with columns 3–22 containing the compounds; the remaining columns were used for reaction controls including substrate only and substrate with enzyme but no compound (Figure 3Aii). The PLpro enzyme was pre-incubated with the compounds for 10 min, and then the reaction was initiated by the addition of substrate. […] We incubated the inhibitors with PLpro before the enzymatic reaction so that the slow-binding inhibitors will not be missed out [21]. […] Fluorescence was read on a Spark multimode microplate reader (Tecan) with an excitation wavelength at 330 nm and emission wavelength at 420 nm. […] An amount of 5 µl of the enzyme was pre-incubated with compounds for 10 min before the addition of 15 µl substrate. Fluorescence was monitored at 2 min for 20 min with 3 min intervals giving a total of seven readings."}, "[2]": {"target": "T1, SARS-CoV-2 PLpro (nsp3 1564–1878)", "experiment": "biochemical", "set-up": "FRET-quenched peptide (Pro3) cleavage by PLpro, 10 min pre-incubation, slope over 20 min, normalised to no-compound control", "conditions": "high concentration screen, read-out: % of control remaining"}}, "note": "Counter-ions that a name gives are not always drawn. Like-named read-outs stand apart in the source and are kept apart here.", "data": [{"compound": "N=C(N)c1ccc2nc(-c3cc(CC(=O)N[C@@H](CC(=O)O)C(=O)O)cc(-c4cc(S(N)(=O)=O)ccc4O)c3O)[nH]c2c1", "note": "[PCI-27483]", "values": [{"measurement": "remaining activity at 1.25 µM", "setting": "[1]; Well no.=8564", "result": 104, "unit": "%"}, {"measurement": "remaining activity at 3.75 µM", "setting": "[2]; Well no.=8564", "result": 102, "unit": "%"}]}, {"compound": "C=CC(=O)N1CCC[C@@H](n2nc(-c3ccc(Oc4ccccc4)cc3)c3c(N)ncnc32)C1", "note": "[PCI-32765 (Ibrutinib)]", "values": [{"measurement": "remaining activity at 1.25 µM", "setting": "[1]; Well no.=4649", "result": 96, "unit": "%"}, {"measurement": "remaining activity at 3.75 µM", "setting": "[2]; Well no.=4649", "result": 88.8, "unit": "%"}]}, {"compound": "COc1ccc(Cn2ccc3ccc(C(=O)NO)cc32)cc1", "note": "[PCI-34051]", "values": [{"measurement": "remaining activity at 1.25 µM", "setting": "[1]; Well no.=4710", "result": 107, "unit": "%"}, {"measurement": "remaining activity at 3.75 µM", "setting": "[2]; Well no.=4710", "result": 103, "unit": "%"}]}, {"compound": "O=C(O)c1ccccn1", "note": "[PCL 016]", "values": [{"measurement": "remaining activity at 1.25 µM", "setting": "[1]; Well no.=7107", "result": 99.9, "unit": "%"}, {"measurement": "remaining activity at 3.75 µM", "setting": "[2]; Well no.=7107", "result": 98.2, "unit": "%"}]}, {"compound": "COc1cc2ncnc(Nc3cccc(Br)c3)c2cc1OC", "note": "[PD153035 HCl]", "values": [{"measurement": "remaining activity at 1.25 µM", "setting": "[1]; Well no.=4627", "result": 104, "unit": "%"}, {"measurement": "remaining activity at 3.75 µM", "setting": "[2]; Well no.=4627", "result": 105, "unit": "%"}]}, {"compound": "C=CC(=O)Nc1ccc2ncnc(Nc3cccc(Br)c3)c2c1", "note": "[PD168393]", "values": [{"measurement": "remaining activity at 1.25 µM", "setting": "[1]; Well no.=4750", "result": 105, "unit": "%"}, {"measurement": "remaining activity at 3.75 µM", "setting": "[2]; Well no.=4750", "result": 104, "unit": "%"}]}, {"compound": "CCN(CC)CCCCNc1ncc2cc(-c3cc(OC)cc(OC)c3)c(NC(=O)NC(C)(C)C)nc2n1", "note": "[PD173074]", "values": [{"measurement": "remaining activity at 1.25 µM", "setting": "[1]; Well no.=4767", "result": 104, "unit": "%"}, {"measurement": "remaining activity at 3.75 µM", "setting": "[2]; Well no.=4767", "result": 108, "unit": "%"}]}, {"compound": "Cn1c(=O)c(-c2c(Cl)cccc2Cl)cc2cnc(Nc3ccc(N4CCOCC4)cc3)nc21", "note": "[PD173952]", "values": [{"measurement": "remaining activity at 1.25 µM", "setting": "[1]; Well no.=5415", "result": 103, "unit": "%"}, {"measurement": "remaining activity at 3.75 µM", "setting": "[2]; Well no.=5415", "result": 108, "unit": "%"}]}, {"compound": "Cn1c(=O)c(-c2c(Cl)cccc2Cl)cc2cnc(Nc3cccc(C(=O)O)c3)nc21", "note": "[PD173955-Analog1]", "values": [{"measurement": "remaining activity at 1.25 µM", "setting": "[1]; Well no.=2849", "result": 101, "unit": "%"}, {"measurement": "remaining activity at 3.75 µM", "setting": "[2]; Well no.=2849", "result": 99.7, "unit": "%"}]}, {"compound": "CSc1cccc(Nc2ncc3cc(-c4c(Cl)cccc4Cl)c(=O)n(C)c3n2)c1", "note": "[PD173955]", "values": [{"measurement": "remaining activity at 1.25 µM", "setting": "[1]; Well no.=2985", "result": 102, "unit": "%"}, {"measurement": "remaining activity at 3.75 µM", "setting": "[2]; Well no.=2985", "result": 102, "unit": "%"}]}, {"compound": "COc1cccc(-c2cc(=O)c3ccccc3o2)c1N", "note": "[PD 98,059]", "values": [{"measurement": "remaining activity at 1.25 µM", "setting": "[1]; Well no.=1457", "result": 94.9, "unit": "%"}, {"measurement": "remaining activity at 3.75 µM", "setting": "[2]; Well no.=1457", "result": 95.8, "unit": "%"}]}, {"compound": "Cc1cccc(C(=O)NCN2CCN(c3ccccc3C#N)CC2)c1", "note": "[PD 168,077 maleate]", "values": [{"measurement": "remaining activity at 1.25 µM", "setting": "[1]; Well no.=1171", "result": 106, "unit": "%"}, {"measurement": "remaining activity at 3.75 µM", "setting": "[2]; Well no.=1171", "result": 107, "unit": "%"}]}, {"compound": "N=C1Sc2ccccc2C2=NCCCN12", "note": "[PD 404,182]", "values": [{"measurement": "remaining activity at 1.25 µM", "setting": "[1]; Well no.=1096", "result": 98.8, "unit": "%"}, {"measurement": "remaining activity at 3.75 µM", "setting": "[2]; Well no.=1096", "result": 101, "unit": "%"}]}, {"compound": "COc1cccc(-c2cc(=O)c3ccccc3o2)c1N", "note": "[PD 98059 - 2-(2-Amino-3-methoxyphenyl)-4H-1-benzopyran-4-one]", "values": [{"measurement": "remaining activity at 1.25 µM", "setting": "[1]; Well no.=2348", "result": 98.4, "unit": "%"}, {"measurement": "remaining activity at 3.75 µM", "setting": "[2]; Well no.=2348", "result": 96.8, "unit": "%"}]}, {"compound": "COc1cccc(-c2cc(=O)c3ccccc3o2)c1N", "note": "[PD 98059]", "values": [{"measurement": "remaining activity at 1.25 µM", "setting": "[1]; Well no.=2600", "result": 94.8, "unit": "%"}, {"measurement": "remaining activity at 3.75 µM", "setting": "[2]; Well no.=2600", "result": 92, "unit": "%"}]}, {"compound": "OC[C@H]1O[C@@H](n2cnc3c(N[C@@H]4CCc5ccccc54)ncnc32)[C@H](O)[C@@H]1O", "note": "[PD 117519]", "values": [{"measurement": "remaining activity at 1.25 µM", "setting": "[1]; Well no.=7763", "result": 96.4, "unit": "%"}, {"measurement": "remaining activity at 1.25 µM", "setting": "[1]; Well no.=8169", "result": 106, "unit": "%"}, {"measurement": "remaining activity at 3.75 µM", "setting": "[2]; Well no.=7763", "result": 102, "unit": "%"}, {"measurement": "remaining activity at 3.75 µM", "setting": "[2]; Well no.=8169", "result": 110, "unit": "%"}]}, {"compound": "Cc1cc(Cn2cnc3c2C[C@@H](C(=O)O)N(C(=O)C(c2ccccc2)c2ccccc2)C3)ccc1N(C)C", "note": "[PD 123319 (ditrifluoroacetate)]", "values": [{"measurement": "remaining activity at 1.25 µM", "setting": "[1]; Well no.=7145", "result": 97.1, "unit": "%"}, {"measurement": "remaining activity at 1.25 µM", "setting": "[1]; Well no.=8406", "result": 94.2, "unit": "%"}, {"measurement": "remaining activity at 3.75 µM", "setting": "[2]; Well no.=7145", "result": 96.9, "unit": "%"}, {"measurement": "remaining activity at 3.75 µM", "setting": "[2]; Well no.=8406", "result": 92.3, "unit": "%"}]}, {"compound": "O=C(O)/C(S)=C/c1ccc(I)cc1", "note": "[PD 150606]", "values": [{"measurement": "remaining activity at 1.25 µM", "setting": "[1]; Well no.=5432", "result": 93.8, "unit": "%"}, {"measurement": "remaining activity at 3.75 µM", "setting": "[2]; Well no.=5432", "result": 97.7, "unit": "%"}]}, {"compound": "O=C(O)/C(S)=C/c1c[nH]c2ccc(F)cc12", "note": "[PD 151746]", "values": [{"measurement": "remaining activity at 1.25 µM", "setting": "[1]; Well no.=8812", "result": 92.8, "unit": "%"}, {"measurement": "remaining activity at 3.75 µM", "setting": "[2]; Well no.=8812", "result": 92.9, "unit": "%"}]}, {"compound": "CNc1cc2c(Nc3cccc(Br)c3)ncnc2cn1", "note": "[PD 158780]", "values": [{"measurement": "remaining activity at 1.25 µM", "setting": "[1]; Well no.=2499", "result": 99.1, "unit": "%"}, {"measurement": "remaining activity at 3.75 µM", "setting": "[2]; Well no.=2499", "result": 99.3, "unit": "%"}]}, {"compound": "CCC(=O)Nc1ccc2ncnc(Nc3cccc(Br)c3)c2c1", "note": "[PD 174265]", "values": [{"measurement": "remaining activity at 1.25 µM", "setting": "[1]; Well no.=2501", "result": 101, "unit": "%"}, {"measurement": "remaining activity at 3.75 µM", "setting": "[2]; Well no.=2501", "result": 98.5, "unit": "%"}]}, {"compound": "Cc1cc(I)ccc1Nc1c(C(=O)NOCC2CC2)cc(F)c(F)c1F", "note": "[PD 198306 - N-(Cyclopropylmethoxy)-3,4,5-trifluoro-2-[(4-iodo-2-methylphenyl)amino]-benzamide]", "values": [{"measurement": "remaining activity at 1.25 µM", "setting": "[1]; Well no.=2582", "result": 92.1, "unit": "%"}, {"measurement": "remaining activity at 3.75 µM", "setting": "[2]; Well no.=2582", "result": 87.7, "unit": "%"}]}, {"compound": "CC(=O)c1c(C)c2cnc(Nc3ccc(N4CCNCC4)cn3)nc2n(C2CCCC2)c1=O", "note": "[PD 0332991 (Palbociclib) HCl]", "values": [{"measurement": "remaining activity at 1.25 µM", "setting": "[1]; Well no.=4667", "result": 99, "unit": "%"}, {"measurement": "remaining activity at 3.75 µM", "setting": "[2]; Well no.=4667", "result": 98, "unit": "%"}]}]}
